Data reported in PMC6599250, “Functional diversity of inhibitors tackling the differentiation blockage of MLL-rearranged leukemia” (Journal of Hematology & Oncology, 2019).
Read-outs that look alike come from different tables or passages of the source.

What was measured:
[1] = test system: OCI-AML-2 (MLL-AF9) cells; experiment: Cell proliferation (alamarBlue) OCI-AML-2; format: cell-based; settings: Homo sapiens, OCI-AML2, OCI-AML-2 (MLL-AF9), read-out: IC50 proliferation
Description: (§1) Cells were seeded in the optimal growth medium at 4000–5000 cells/well in a 96 MTP and cultured 18–24 h before inhibitor treatment.

OCI-AML-3 (MLL-WT) cells = experiment: Cell proliferation (alamarBlue) OCI-AML-3; format: cell-based; settings: Homo sapiens, OCI-AML-3, OCI-AML-3 (MLL-WT), read-out: IC50 proliferation
Description: as §1

SEM (MLL-AF4) cells = experiment: Cell proliferation (alamarBlue) SEM; format: cell-based; settings: SEM (MLL-AF4), read-out: IC50 proliferation
Description: as §1

NOMO-1 (MLL-AF9) cells = experiment: Cell proliferation (alamarBlue) NOMO-1; format: cell-based; settings: Homo sapiens, NOMO-1, NOMO-1 (MLL-AF9), read-out: IC50 proliferation
Description: as §1

OCI-AML-5 (MLL-WT) cells = experiment: Cell proliferation (alamarBlue) OCI-AML-5; format: cell-based; settings: Homo sapiens, OCI-AML-5, OCI-AML-5 (MLL-WT), read-out: IC50 proliferation
Description: as §1

MOLM-14 (MLL-AF9) cells = experiment: Cell proliferation (alamarBlue) MOLM-14; format: cell-based; settings: Homo sapiens, MOLM-14, MOLM-14 (MLL-AF9), read-out: IC50 proliferation
Description: as §1

HL-60 (MLL-WT) cells = experiment: Cell proliferation (alamarBlue) HL-60; format: cell-based; settings: for IC50: Homo sapiens, HL-60 (MLL-WT), read-out: IC50 proliferation
Description: as §1

[2] = test system: H3K79me2 on HOXA9 and MEIS1; settings: clinical phase I study; cited from earlier work
KOPN-8 (MLL-ENL) cells = experiment: Cell proliferation (alamarBlue) KOPN-8; format: cell-based; settings: Homo sapiens, KOPN-8, KOPN-8 (MLL-ENL), read-out: IC50 proliferation
Description: as §1

MOLM-13 (MLL-AF9) cells = experiment: Cell proliferation (alamarBlue) MOLM-13; format: cell-based; settings: Homo sapiens, MOLM-13, MOLM-13 (MLL-AF9), read-out: IC50 proliferation
Description: as §1

EOL-1 (MLL-TD) cells = experiment: Cell proliferation (alamarBlue) EOL-1; format: cell-based; settings: Homo sapiens, EOL1, EOL-1 (MLL-TD), read-out: IC50 proliferation
Description: as §1

MV4-11 (MLL-AF4) cells = experiment: Cell proliferation (alamarBlue) MV4-11; format: cell-based; settings: Homo sapiens, MV4-11, MV4-11 (MLL-AF4), read-out: IC50 proliferation
Description: as §1

ML-2 (MLL-AF6) cells = experiment: Cell proliferation (alamarBlue) ML-2; format: cell-based; settings: ML-2 (MLL-AF6), read-out: IC50 proliferation
Description: as §1

RS4;11 (MLL-AF4) cells = experiment: Cell proliferation (alamarBlue) RS4;11; format: cell-based; settings: Homo sapiens, RS4-11, RS4;11 (MLL-AF4), read-out: IC50 proliferation
Description: as §1

HL-60 cells = experiment: CD11b protein expression by flow cytometry, HL-60; format: cell-based; settings: non-fused HL-60 cell line, 4 and 7 days of treatment
Description: (§2) Four thousand cells per well were seeded 24 h before they were treated with the indicated inhibitor in a 96 MTP. After 4 or 7 days of treatment, cells were washed with PBS and stained with CD11b - APC (BioLegend, San Diego, California, USA) and DAPI (Thermo Fisher Scientific, Waltham, Massachusetts, USA) or AnnexinV – FITC (BioLegend, San Diego, California, USA) and PI solution (Sigma-Aldrich St. Louis, Missouri, USA) using the FACS Canto II (BD Biosciences, Heidelberg, Germany) and data was analyzed with FACSDiva software.

[3] = test system: MLL-fused cell lines (MV4-11, MOLM-13); experiment: CD11b protein expression by flow cytometry, MLL-fused lines; format: cell-based; settings: 4 and 7 days of treatment
Description: as §2

Jurkat (MLL-WT) cells = experiment: Cell proliferation (alamarBlue) Jurkat; format: cell-based; settings: Homo sapiens, Jurkat (MLL-WT)
Description: as §1

[4] = test system: selected MLL-fused models; experiment: Cell proliferation, AML/ALL panel; format: cell-based; settings: specifically in selected MLL-fused models (Fig. 2a); read-out: proliferation IC50 (significant effects)
Description: as §1

[5] = test system: MV4-11, MOLM-13 and HL-60 cells; experiment: Cell cycle analysis (PI, flow cytometry); format: cell-based; settings: 4 days of treatment (Figure S2)
Description: Cells were washed with PBS and fixed overnight at − 20 °C with 70% ethanol. Fixed cells were stained with PI solution (Sigma-Aldrich St. Louis, MO, USA) solution containing RNase A (Qiagen, Hilden, Germany). Fluorescence was measured with FACS Canto II (BD Biosciences, Heidelberg, Germany) flow cytometer and data was analyzed with FACSDiva software.

CC(C)N(C[C@H]1O[C@@H](n2cnc3c(N)ncnc32)[C@H](O)[C@@H]1O)[C@H]1C[C@@H](CCc2nc3cc(C(C)(C)C)ccc3[nH]2)C1 [EPZ-5676]
IC50 ([1]; D1): > 10 µM
IC50 ([1]; D4): > 10 µM
IC50 ([1]; D7): > 10 µM
IC50 (OCI-AML-3 (MLL-WT) cells; D1): > 10 µM
IC50 (OCI-AML-3 (MLL-WT) cells; D4): > 10 µM
IC50 (OCI-AML-3 (MLL-WT) cells; D7): > 10 µM
IC50 (SEM (MLL-AF4) cells; D1): > 10 µM
IC50 (SEM (MLL-AF4) cells; D4): > 10 µM
IC50 (SEM (MLL-AF4) cells; D7): > 10 µM
IC50 (NOMO-1 (MLL-AF9) cells; D1): > 10 µM
IC50 (NOMO-1 (MLL-AF9) cells; D4): > 10 µM
IC50 (NOMO-1 (MLL-AF9) cells; D7): 0.15 µM
IC50 (OCI-AML-5 (MLL-WT) cells; D1): > 10 µM
IC50 (OCI-AML-5 (MLL-WT) cells; D4): > 10 µM
IC50 (OCI-AML-5 (MLL-WT) cells; D7): > 10 µM
IC50 (MOLM-14 (MLL-AF9) cells; D1): > 10 µM
IC50 (MOLM-14 (MLL-AF9) cells; D4): 0.14 µM
IC50 (MOLM-14 (MLL-AF9) cells; D7): 0.12 µM
anti-proliferation effect in non-fused HL-60 (HL-60 (MLL-WT) cells; HL-60, 4 days of treatment (Fig. 1a)): no significant effects
IC50 (HL-60 (MLL-WT) cells; 24 h, 1 day of treatment (D1)): > 10 µM
IC50 (HL-60 (MLL-WT) cells; 96 h, 4 days of treatment (D4)): > 10 µM
IC50 (HL-60 (MLL-WT) cells; 168 h, 7 days of treatment (D7)): > 10 µM
H3K79me2 on HOXA9 and MEIS1 in AML patients [2]: significant reduction of H3K79me2 on HOXA9 and MEIS1
IC50 (KOPN-8 (MLL-ENL) cells; D1): > 10 µM
IC50 (KOPN-8 (MLL-ENL) cells; D4): > 10 µM
IC50 (KOPN-8 (MLL-ENL) cells; D7): > 10 µM
IC50 (MOLM-13 (MLL-AF9) cells; D1): > 10 µM
IC50 (MOLM-13 (MLL-AF9) cells; D4): > 10 µM
IC50 (MOLM-13 (MLL-AF9) cells; D7): 6.57 µM
IC50 (EOL-1 (MLL-TD) cells; D1): > 10 µM
IC50 (EOL-1 (MLL-TD) cells; D4): > 10 µM
IC50 (EOL-1 (MLL-TD) cells; D7): 0.12 µM
IC50 (MV4-11 (MLL-AF4) cells; D1): > 10 µM
IC50 (MV4-11 (MLL-AF4) cells; D4): 0.25 µM
IC50 (MV4-11 (MLL-AF4) cells; D7): 0.28 µM
IC50 (ML-2 (MLL-AF6) cells; D1): > 10 µM
IC50 (ML-2 (MLL-AF6) cells; D4): > 10 µM
IC50 (ML-2 (MLL-AF6) cells; D7): > 10 µM
IC50 (RS4;11 (MLL-AF4) cells; D1): > 10 µM
IC50 (RS4;11 (MLL-AF4) cells; D4): > 10 µM
IC50 (RS4;11 (MLL-AF4) cells; D7): > 10 µM
CD11b level (HL-60 cells): did not increase CD11b level
CD11b protein level [3]: increased CD11b protein level in a dose and time-dependent manner
IC50 (Jurkat (MLL-WT) cells; D1, read-out: IC50 proliferation): > 10 µM
IC50 (Jurkat (MLL-WT) cells; D4, read-out: IC50 proliferation): > 10 µM
IC50 (Jurkat (MLL-WT) cells; D7, read-out: IC50 proliferation): > 10 µM
IC50 [4]: < 1 µM
cell cycle effect [5]: decrease of cells in S and G2/M phase with increasing concentrations
